This note sets out measurements from patent US4332820A, “Substituted benzonitriles having antiviral activity” (The Dow Chemical Company, priority 1980, dated 1982).

Converted amounts (≈) assume the structure as drawn. A value given as a limit tells only on which side of the number the result lay.

The subject of one data set is Cox A21. The data set can be described thus: Single Oral Dose test in mice challenged with Cox A21. It is filed as in vivo, Swiss male mice. The conditions noted are these: po, 600 mg/kg, 3 h.
For data set [1], the system named is rhinovirus type 1A (RV-1A). The data set can be described thus: Tissue culture antiviral testing, RV-1A (cytopathic effect, HeLa cells). The data set is classed as cell-based. The conditions noted are these: Enterovirus, HeLa cells, NA = not active at the standard test conditions, read-out: Lowest concentration of the compound necessary to cause a 50 percent reduction in cytopathic effect.

The next data set concerns rhinovirus type 5 (RV-5). Briefly: Tissue culture antiviral testing, RV-5 (cytopathic effect, HeLa cells). The conditions noted are these: Enterovirus, HeLa cells, read-out: Lowest concentration of the compound necessary to cause a 50 percent reduction in cytopathic effect. The data set is classed as cell-based.
Data set [2] concerns Coxsackie A21 virus (Cox A21). Briefly: Tissue culture antiviral testing, Cox A21 (cytopathic effect, HeLa cells). The data set is classed as cell-based. The conditions noted are these: HeLa cells, NA = not active at the standard test conditions, read-out: Lowest concentration of the compound necessary to cause a 50 percent reduction in cytopathic effect.
The nature of data set [3]: Cytotoxicity in tissue culture (HeLa monolayers). The settings on record: human; HeLa cells; observed at 48 and 72 hours post-treatment; read-out: Cytotoxicity (concentration of the compound found to be toxic to the cell). The data set is classed as cell-based.
Another data set relates to rhinovirus type 2 (RV-2). Briefly: Tissue culture antiviral testing, RV-2 (cytopathic effect, HeLa cells). It is filed as cell-based. The conditions noted are these: Enterovirus, HeLa cells, NA = not active at the standard test conditions, read-out: Lowest concentration of the compound necessary to cause a 50 percent reduction in cytopathic effect.
Another data set relates to Coxsackie A21 virus. The data set can be described thus: Continuous Oral Feeding test in mice challenged with Coxsackie A21. The conditions noted are these: po, 0.06 % in diet, 240 h, 0.06 % strength. The data set is classed as in vivo.
The subject of a further data set is rhinovirus type 8 (RV-8). The data set can be described thus: Tissue culture antiviral testing, RV-8 (cytopathic effect, HeLa cells). It is filed as cell-based. The settings on record: Enterovirus, HeLa cells, read-out: Lowest concentration of the compound necessary to cause a 50 percent reduction in cytopathic effect.

`N#Cc1cc([N+](=O)[O-])ccc1Oc1ccc(Cl)cc1Cl` [Example 2, 2-(2,4-Dichlorophenoxy)-5-nitrobenzonitrile]: the “X^2 (Single Oral Dose, chi-square of deaths vs virus control)” value in the data set on Cox A21 turned out to be 3.659. In addition, the EC50 in data set [1] turned out to be 0.625 µg/mL (≈ 2.02 µM); in the data set on rhinovirus type 5 (RV-5), 2.5 µg/mL (≈ 8.09 µM); in data set [2], 1.25 µg/mL (≈ 4.04 µM); in the data set on rhinovirus type 2 (RV-2), 0.625 µg/mL (≈ 2.02 µM); in the data set with rhinovirus type 8 (RV-8) it was 2.5 µg/mL (≈ 8.09 µM). Further, the MCC in data set [3] was greater than 100 µg/mL. Besides, the “X^2 (Continuous Oral Feeding, chi-square of deaths)” value in the data set with Coxsackie A21 virus was found to be 1.38.
With `N#Cc1cc([N+](=O)[O-])ccc1Oc1ccc(Br)cc1` [Example 3, 2-(4-Bromophenoxy)-5-nitrobenzonitrile], the “X^2 (Single Oral Dose, chi-square of deaths vs virus control)” value in the data set on Cox A21 was found to be 2.139. Also, the values for the EC50 (in data set [1]; in data set [2]; in the data set with rhinovirus type 2 (RV-2)) were 1.25 µg/mL (≈ 3.92 µM), 2.5 µg/mL (≈ 7.83 µM) and 1.25 µg/mL (≈ 3.92 µM), respectively. Moreover, the MCC in data set [3] is greater than 100 µg/mL. Also, the “X^2 (Continuous Oral Feeding, chi-square of deaths)” value in the data set on Coxsackie A21 virus was determined as 5.81.
As to `N#Cc1cc([N+](=O)[O-])ccc1Oc1ccc(Cl)cc1` [Example 4, 2-(4-Chlorophenoxy)-5-nitrobenzonitrile], the “X^2 (Single Oral Dose, chi-square of deaths vs virus control)” value in the data set with Cox A21 was found to be 0.252. In addition, the EC50 was no more than 0.625 µg/mL in data set [1]; less than 0.3 µg/mL in the data set on rhinovirus type 5 (RV-5); 0.625 µg/mL (≈ 2.28 µM) in data set [2]; no more than 0.625 µg/mL with rhinovirus type 2 (RV-2); less than 6 µg/mL in the data set on rhinovirus type 8 (RV-8). The MCC in data set [3] was greater than 100 µg/mL. Further, the “X^2 (Continuous Oral Feeding, chi-square of deaths)” value in the data set with Coxsackie A21 virus came to 10.61.
For the compound `CSc1ccc(Oc2ccc([N+](=O)[O-])cc2C#N)cc1` [Example 6, 2-(4-(Methylthio)phenoxy)-5-nitrobenzonitrile], the “X^2 (Single Oral Dose, chi-square of deaths vs virus control)” value in the data set on Cox A21 worked out at 0.609. The EC50 in data set [2] was less than 6.25 µg/mL; in the data set on rhinovirus type 2 (RV-2), no more than 6.25 µg/mL. Moreover, in data set [3], the MCC amounted to 100 µg/mL. The “X^2 (Continuous Oral Feeding, chi-square of deaths)” value in the data set on Coxsackie A21 virus was found to be 6.91.
On the same counts, the results for `C[S+]([O-])c1ccc(Oc2ccc([N+](=O)[O-])cc2C#N)cc1` (stereo not shown) [Example 7, 2-(4-(Methylsulfinyl)phenoxy)-5-nitrobenzonitrile] are 18.94, less than 6.25 µg/mL, 6.25 µg/mL (≈ 20.7 µM), 50 µg/mL and 18.82.
On to `CS(=O)(=O)c1ccc(Oc2ccc([N+](=O)[O-])cc2C#N)cc1` [Example 8, 2-(4-(Methylsulfonyl)phenoxy)-5-nitrobenzonitrile], for which the “X^2 (Single Oral Dose, chi-square of deaths vs virus control)” value in the data set on Cox A21 is recorded as 0.095. Besides, the results for the EC50 (in data set [2]; in the data set with rhinovirus type 2 (RV-2)) were less than 6.25 µg/mL and 12.5 µg/mL (≈ 39.3 µM), respectively. Besides, the MCC in data set [3] is greater than 100 µg/mL. Moreover, the “X^2 (Continuous Oral Feeding, chi-square of deaths)” value with Coxsackie A21 virus is given as 10.45.
`N#Cc1cc([N+](=O)[O-])ccc1Sc1ccc(Cl)cc1` [Example 12, 2-((4-Chlorophenyl)thio)-5-nitrobenzonitrile]: the “X^2 (Single Oral Dose, chi-square of deaths vs virus control)” value with Cox A21 was determined as 4.805. Also, the values for the EC50 (in data set [1]; in data set [2]; with rhinovirus type 2 (RV-2)) were roughly 3.12 µg/mL (≈ 10.7 µM), 1.6 µg/mL (≈ 5.5 µM) and no more than 1.6 µg/mL, respectively. In addition, the MCC in data set [3] came to 25 µg/mL. Besides, in the data set with Coxsackie A21 virus, the “X^2 (Continuous Oral Feeding, chi-square of deaths)” value is 0.215.
